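96-well plates; 48 h exposure; 5 concentrations. Endpoints by linear interpolation between flanking doses. Not reached: highest tested concentration assigned. GI50 marks 50% less growth.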 The source made the active and inactive calls. No stated cut-off is given here; in the data, active = GI50 up to about 1.1 µM and inactive = higher.
Columns and labels:
Test in all cases: NCI tumour cell line growth inhibition, 48 h
[1] = system: BT-549
[2] = system: MCF7
[3] = system: CCRF-CEM
[4] = system: A498
[5] = system: A549
[6] = system: LOX IMVI
[7] = system: SK-MEL-5
[8] = system: ACHN
[9] = system: NCI-H226
[10] = system: IGROV-1
[11] = system: OVCAR-3
[12] = system: EKVX
[13] = system: HCC 2998
[14] = system: Malme-3M
[15] = system: HOP-62
[16] = system: SNB-75
[17] = system: SK-MEL-28
[18] = system: HT-29
[19] = system: PC-3
[20] = system: SF-268

Measured: GI50

CC(C)=CCC/C(C)=C/CC/C(C)=C/CC/C(C)=C/CC/C(C)=C/CC/C(C)=C/CC/C(C)=C/CC/C(C)=C/CC/C(C)=C/CO [SOLANESOL]
inactive: [1] > 100 µM | [2] 87.7 µM | [3] > 100 µM | [4] > 100 µM | [5] > 100 µM | [6] > 100 µM | [7] > 100 µM | [8] > 100 µM | [9] > 100 µM | [10] > 100 µM | [11] > 100 µM | [12] > 100 µM | [13] > 100 µM | [14] > 100 µM | [15] > 100 µM | [16] > 100 µM | [17] > 100 µM | [18] > 100 µM | [19] > 100 µM | [20] > 100 µM

O=C1C(/N=N/c2ccc(-c3nc4ccccc4[nH]3)cc2)NC(=S)N1c1ccccc1 (stereo not given)
inactive: [1] > 100 µM | [2] 10.5 µM | [3] 10.7 µM | [4] > 100 µM | [5] 53.7 µM | [6] 19.8 µM | [7] > 100 µM | [8] > 100 µM | [9] > 100 µM | [10] 40.2 µM | [11] > 100 µM | [12] > 100 µM | [13] 21.2 µM | [14] > 100 µM | [15] > 100 µM | [16] 93.1 µM | [17] > 100 µM | [18] 31.8 µM | [19] 98.2 µM | [20] > 100 µM

CN(CCNC(=O)c1cn(C)c2c1ccc1cc(Cl)ccc12)CCNC(=O)c1cn(C)c2c1ccc1cc(Cl)ccc12
inactive: [1] 3.43 µM | [2] 1.86 µM | [3] 5.74 µM | [4] 3.71 µM | [5] 1.92 µM | [6] 5.71 µM | [7] 10.9 µM | [8] 5.25 µM | [9] 25.9 µM | [10] 3.57 µM | [11] 2.4 µM | [12] 1.94 µM | [13] 1.49 µM | [14] 2.21 µM | [15] 1.79 µM | [16] 1.68 µM | [17] 5.85 µM | [18] 1.93 µM | [19] 5.5 µM | [20] 1.77 µM

From ChEMBL document CHEMBL1201862, “PubChem BioAssay data set” (2004)
